Here are results for 21 molecules from PubChem BioAssay (NCI).

What all share (experiment): inhibition of tumour cell growth, NCI panel, 48 h
Test [1] relates to HCT-116 colon.
Test [2] relates to A498 renal.
Test [3] relates to SK-MEL-2 melanoma.
Test [4] relates to NCI-H460 lung.
In test [5] the test system is SF-268 CNS.
For test [6], the system named is NCI-H226 lung.
Test [7] has as its system K-562 leukemia.
In test [8] the test system is TK-10 renal.
In test [9] the test system is HL-60(TB) leukemia.
For test [10], the system named is NCI-H522 lung.

Several values for one entry are separate records, joined by “and”; a condition that tells them apart may be missing. Equal values may be shown once.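 Five concentrations, 48 hours, 96-well plates. The concentration for 50% growth inhibition is given as GI50. The concentration for full growth arrest is given as TGI.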 A value given as a limit tells only on which side of the number the result lay.

For `Cc1cccc(C)c1NC(=O)CCC/C(CC(=O)c1ccc(F)cc1)=N\NC(=O)C(=O)NN`, the TGI in test [1], in test [2], in test [3], in [4], in test [5] and in test [6] was more than 100 µM in each case. The TGI in [7], in [8] and in [9] was more than 100 µM in each case.
With `O=C(O)c1cc2ccccc2c2c3c(ccc12)OCO3`, the GI50 in [1] was 262 µM; in test [2], 125 µM; in test [3], 166 µM; in [4], 265 µM; in test [5], 188 µM; in test [6] it was 123 µM. Besides, the GI50 is 259 µM in [7], 231 µM in test [8] and 172 µM in test [9]. Besides, the TGI in test [1] was more than 1000 µM; in test [2], 324 µM; in [3], 333 µM; in test [4], more than 1000 µM; in test [5], 580 µM; in [6], 818 µM. Further, the TGI is more than 1000 µM in test [7], 616 µM in [8] and 440 µM in test [9].
For the molecule `Cc1ccc(S(=O)(=O)N/N=C(\c2nc3ccc([N+](=O)[O-])cc3[nH]c2=O)C(O)c2ccc([N+](=O)[O-])cc2)cc1` (configuration not stated), the TGI in test [10], in test [2], in test [3], in [4], in test [5] and in test [7] was more than 100 µM each time. The TGI in test [8] is more than 100 µM; in test [9], 95.6 µM.
For the molecule `CCCCCCCCCCCCCCCCCCNCc1ccc(Cl)cc1`, the GI50 in [10] is 2.52 µM; in test [1] it was 3.03 µM; in [2] it was 14 µM; in test [3], 8.65 µM; in test [4] it was 2.05 µM; in [5], 3.82 µM. Moreover, the values for the GI50 in test [6], in test [8] and in test [9] were 3.7 µM, 2.3 µM and 1.55 µM, respectively. In addition, the TGI in test [10] worked out at 8.73 µM; in test [1], 11.7 µM; in test [2], 31.9 µM; in [3], 25.9 µM; in [4], 4 µM; in test [5], 18.2 µM. For the same molecule, the TGI in test [6] is 19.2 µM; in test [8], 9.03 µM; in test [9], 3.94 µM.
Regarding `COC(=O)c1cccc2c3ccccc3c3ccccc3c12`, the TGI is 80.9 µM in test [10]; more than 100 µM in test [1]; 50 µM in test [2]; 58.7 µM in test [3]; more than 100 µM in test [5]; more than 100 µM in test [6]. In addition, the results for the TGI in [7], in test [8] and in [9] were 79.3 µM, more than 100 µM and 58.1 µM, respectively.
For `S=c1o[nH]c(-c2ccccc2)c1C=Nc1ccccc1`, the TGI in test [10], in [2], in test [3], in test [4], in [5] and in test [7] was more than 100 µM in each case. Further, the TGI in test [8] and in [9] was more than 100 µM in each case.
As for `CCOC(=O)C1C=C2O[C@@H]3OC4(CCCCC4)O[C@@H]3C2C2C(=O)CCC(=O)[C@@]12C(=O)OC` (some centres not stated), the TGI in test [10], in test [1], in test [2], in test [3], in [4] and in test [5] was more than 100 µM in each case. For the same molecule, the TGI in [6], in test [7] and in test [9] was more than 100 µM each time.
In the case of `O=[P+](O)c1ccccn1`, the TGI in test [10], in [1], in [2], in [4], in [5] and in test [6] was more than 100 µM each time. Besides, the TGI in test [7], in test [8] and in test [9] was more than 100 µM each time.
In the case of `NCCCOc1cc2ccccc2cc1C(=O)Nc1ccc(Cl)cc1OC(=O)c1cc2ccccc2cc1OCCCN`, the GI50 in test [10] is 0.235 µM; in [1], 0.175 µM; in test [2], 1.53 µM; in [3] it was 0.312 µM; in test [4], 0.195 µM; in [5] it was 0.922 µM. Also, the GI50 in [8] is 0.545 µM; in test [9] it was 0.517 µM. Besides, the TGI amounted to 0.639 µM in test [10]; 0.313 µM in [1]; 2.92 µM in test [2]; 1.2 µM in test [3]; 0.345 µM in [4]; 2.44 µM in test [5]. The TGI in test [8] stood at 1.07 µM; in test [9], 2.37 µM.
Regarding `COc1cc(Cl)cc(-c2nn(-c3cccc(NC(=O)Nc4cccc(C(F)(F)F)c4)c3)cc2-c2ccncc2)c1`, the GI50 was 0.455 µM in test [10]; 0.754 µM in [1]; 2.25 µM in [2]; 1.29 µM in test [3]; 0.84 µM in [4]; 2.56 µM in test [5]. In addition, the GI50 is 2.26 µM in [6], 0.824 µM in test [7] and 1.91 µM in test [9]. Also, the TGI in test [10] is 2.51 µM; in [1], 7.61 µM; in test [2] it was 25.6 µM; in [3], 3.08 µM; in test [4], 4.66 µM; in test [5] it was 17.1 µM. Further, the TGI in test [6] was 11.5 µM; in [7], 14.4 µM; in test [9], 5.51 µM.
Turning to `O=C1/C(=C/c2ccc3c(c2)OCCO3)CCC/C1=C\c1ccc2c(c1)OCCO2`, the TGI is 92.3 µM in test [10]; 7.85 µM in test [1]; 62.1 µM in test [2]; 65.6 µM in test [4]; more than 100 µM in [5]; more than 100 µM in test [8]. For the same molecule, in test [9], the TGI was 56.9 µM.
As to `COc1ccc(/C(C)=N/NC(=O)CSc2nc3ccccc3c(=O)n2CCc2ccc(S(N)(=O)=O)cc2)cc1`, the GI50 in test [10] is 2.26 µM; in test [2], 2.1 µM; in test [3] it was 2.58 µM; in test [4], 2.03 µM; in test [6], 1.95 µM; in test [7] it was 2.87 µM. The GI50 was 1.95 µM in test [8] and 16.6 µM in test [9]. In addition, the TGI in [10] was 6.75 µM; in [2] it was 4.12 µM; in [3], 6.68 µM; in [4], 3.81 µM; in test [6], 4.18 µM; in test [7], more than 100 µM. For the same molecule, the values for the TGI in [8] and in test [9] were 3.98 µM and more than 100 µM, respectively.
Take `C/C(=N\NC(N)=S)c1ccc(C)c(C)c1`: the TGI in test [1], in [2], in test [3], in test [4], in test [5] and in test [6] was more than 100 µM throughout. Also, the TGI in [7] was more than 100 µM; in test [8], more than 100 µM; in test [9], 75.4 µM.
Regarding `COc1ccc(C(C)c2cc(OC)c(OC)c(OC)c2)cc1` (configuration not stated), the GI50 was 0.133 µM in [10]; 0.125 µM in test [2]; 0.177 µM in test [4]; 0.621 µM in test [5]; 46.5 µM in test [6]; 0.0261 µM in [7]. In addition, the GI50 in [8] is more than 50 µM; in [9], 0.0979 µM. Moreover, the TGI in test [10], in [2], in [4], in test [5], in [6] and in [7] was more than 50 µM each time. Besides, the results for the TGI in test [8] and in [9] were more than 50 µM and 0.374 µM, respectively.
As to `O=C(NCCc1ccccc1)Nc1ccc2cc3ccc(NC(=O)NCCc4ccccc4)cc3nc2c1`, the GI50 in test [10] was 0.326 µM; in test [1] it was 0.349 µM; in test [2] it was 1.35 µM; in [3], 1.39 µM; in test [4] it was 1.27 µM; in test [6], 1.95 µM. Further, the GI50 is 0.392 µM in test [7], 4.98 µM in test [8] and 0.266 µM in test [9]. The TGI in [10] came out at 1.5 µM; in test [1] it was 1.29 µM; in test [2], 8.44 µM; in [3], 3 µM; in [4], 3.57 µM; in test [6], 5.85 µM. The TGI in test [7] came to 35.7 µM; in test [8], 24.8 µM; in test [9], 0.774 µM.
For the molecule `CN1CCN(c2ccc(OC(F)(F)F)c(Nc3ncc4c(n3)-c3c(c(C(N)=O)nn3CCO)CC4)c2)CC1`, the GI50 in test [10] is 0.03 µM and 0.0265 µM; in [1] it was 0.0353 µM and 0.0452 µM; in [2] it was 0.0469 µM and 0.101 µM; in [3], 0.0543 µM; in [4] it was 0.0391 µM and 0.0849 µM; in test [5], 0.0661 µM and 0.229 µM. For the same molecule, the GI50 in [6] was 4.26 µM and 1.21 µM; in [7], 0.0375 µM and 0.0269 µM; in [9], 0.0237 µM and 0.0298 µM. In addition, the TGI in test [1] is 18.7 µM and > 10 µM; in test [2] it was 0.638 µM and 0.588 µM; in [3], more than 10 µM; in test [4], 14.9 µM and > 10 µM; in test [5], 20.3 µM and > 10 µM; in test [6] it was 50.4 µM and > 10 µM. Moreover, the TGI in test [7] worked out at 19.6 µM; in test [9], 0.0744 µM.
Regarding `Nc1c(C(=O)Nc2ccccn2)sc2nc3c(cc12)C(O)CCC3` (configuration not stated), the GI50 in test [10] is 0.815 µM; in test [1], 1.72 µM; in test [2] it was 1.53 µM; in test [3], 1.34 µM; in test [4], 1.88 µM; in [5] it was 2.94 µM. The GI50 in test [6] is more than 50 µM; in test [7], 0.319 µM; in test [9] it was 0.562 µM. The TGI was 2.02 µM in test [10]; more than 50 µM in test [1]; more than 50 µM in [2]; more than 50 µM in [3]; more than 50 µM in [4]; more than 50 µM in [5]. Further, the TGI in test [6], in test [7] and in test [9] was more than 50 µM in each case.
Take `N#Cc1cnc2cc(OC[C@@H](O)CO)c(NC(=O)C3CCCC3)cc2c1Nc1ccc(OCc2cccc(F)c2)c(Cl)c1`: the GI50 in [10] was 0.568 µM; in [1] it was 0.4 µM; in test [2], 2.78 µM; in test [3], 0.915 µM; in test [4] it was 1.05 µM; in test [5], 1.37 µM. Besides, the values for the GI50 in test [6], in test [8] and in [9] were 3.86 µM, 1.99 µM and 0.789 µM, respectively. The TGI in test [10] amounted to 1.34 µM; in test [1] it was 1.1 µM; in test [2], 13.4 µM; in test [3], 1.86 µM; in test [4], 4.73 µM; in test [5], 5.98 µM. Also, the TGI in test [6] was determined as 11.4 µM; in test [8], 7.21 µM; in test [9], 2.76 µM.
`CN(C)CCC(/C=C/c1ccccc1)=N\Nc1ccc(Cl)c(Cl)c1`: the TGI in test [10] came out at 4.41 µM; in test [1], 11.2 µM; in test [2] it was 13.8 µM; in test [3], 6.31 µM; in [4] it was 4.25 µM; in test [5], 8.81 µM. The TGI was 6.03 µM in test [7], 6.18 µM in test [8] and 7.31 µM in test [9].
On to `O=c1[nH]c2cc([N+](=O)[O-])ccc2nc1/C(=N/Nc1ccccc1)C(O)c1ccco1` (configuration not stated), for which the TGI in [10], in test [1], in test [2], in test [3], in test [4] and in test [5] was more than 100 µM throughout. Also, the TGI in test [6] is 76.1 µM; in test [7], more than 100 µM; in test [9] it was more than 100 µM.
With `Cc1cc(N(CCC#N)CCC#N)ccc1N=Nc1cc(Cl)ccc1Cl`, the TGI in [10] was determined as 3.41 µM; in test [2], 34.7 µM; in test [3] it was 33.8 µM; in [5], 29.9 µM; in [6] it was 25.2 µM; in [7], 11.4 µM. Besides, the TGI was 23.8 µM in test [8] and 16 µM in [9].
